Counter-ions that a name gives are not always drawn. Like-named read-outs stand apart in the source and are kept apart here.
How the values were obtained:
[1] = system: ZIKV-induced caspase 3/7 activity in SNB-19 cells; test: Caspase 3/7 activity assay, ZIKV-infected SNB-19 cells; assay type: cell-based
Description: (§1) Caspase-Glo 3/7 assay kit (catalog number G8092; Promega, Madison, Wis.) was used to detect caspase 3/7 activity. Reagents were reconstituted as described in the protocol from the manufacturer. Polystyrene plates (384-well and 1536-well; regular tissue culture treated and PDL coated) were purchased from Greiner Bio-One (Monroe, N.C.). Cells were seeded in 384- and 1536-well assay plates and cultured at 37° C. with 5% CO2 for 16 hours. ZIKV solution was added to cells, followed by incubation at 37° C. with 5% CO2 for 6 hours. Caspase-Glo 3/7 was added to each well, unless otherwise specified, and incubated at room temperature for 30 minutes. The luminescence intensity of the assay plates was measured using a ViewLux plate reader (PerkinElmer). Data were normalized by using the cell-containing wells without ZIKV as a negative control (0% induction of caspase 3/7 activity) and wells containing ZIKV infected cells that induced caspase 3/7 activity were used as a positive control (100% induction of caspase 3/7 activity). […]
(§2) Caspase-Glo 3/7 assay kit (Promega) was used to detect caspase 3/7 activity. Reagents were reconstituted as described in the protocol from the manufacturer. Cells were seeded in 384- and 1536-well assay plates and cultured at 37° C. with 5% CO2 for 16 hours. ZIKV solution was added to cells, followed by incubation at 37° C. with 5% CO2 for 6 hours. Caspase-Glo 3/7 was added to each well at a 1:1 ratio, unless otherwise specified, and incubated at room temperature for 30 minutes. The luminescence intensity of the assay plates was measured using a ViewLux plate reader (PerkinElmer). Data was normalized by using the cell-containing wells without ZIKV as a negative (0% induction of caspase 3/7 activity) control and wells containing ZIKV infected cells that induced caspase 3/7 activity were used as a positive control (100% induction of caspase 3/7 activity). […]

[2] = system: ZIKV-induced caspase 3/7 activity in hNPCs; test: Caspase 3/7 activity assay, ZIKV-infected hNPCs; assay type: cell-based; conditions: for IC50: read-out: Caspase 3 (IC50, uM) NPCs; for Emax: read-out: Caspase 3 (efficacy, %) NPCs
Description: Caspase-Glo 3/7 assay kit (catalog number G8092; Promega, Madison, Wis.) was used to detect caspase 3/7 activity. Reagents were reconstituted as described in the protocol from the manufacturer. Polystyrene plates (384-well and 1536-well; regular tissue culture treated and PDL coated) were purchased from Greiner Bio-One (Monroe, N.C.). Cells were seeded in 384- and 1536-well assay plates and cultured at 37° C. with 5% CO2 for 16 hours. ZIKV solution was added to cells, followed by incubation at 37° C. with 5% CO2 for 6 hours. Caspase-Glo 3/7 was added to each well, unless otherwise specified, and incubated at room temperature for 30 minutes. The luminescence intensity of the assay plates was measured using a ViewLux plate reader (PerkinElmer). Data were normalized by using the cell-containing wells without ZIKV as a negative control (0% induction of caspase 3/7 activity) and wells containing ZIKV infected cells that induced caspase 3/7 activity were used as a positive control (100% induction of caspase 3/7 activity).
Human NPCs were seeded onto PDL coated 1536-well assay plates at 250 cells per 3 μl/well and incubated at 37° C. in 5% CO2 for 16 hours. Test compounds dissolved in DMSO were transferred to assay plates at a volume of 23 nl/well by an automated pintool workstation (Wako Automation, San Diego, Calif.). Compounds were incubated with cells for 30 minutes at 37° C. in 5% CO2, immediately followed by the addition of 2 μl/well of ZIKV. Incubation time of compound-treated cells with ZIKV varied based on assay format. Experiments measuring virus-induced caspase 3/7 activity required a 6 hour incubation of ZIKV in the presence compounds at 37° C. in 5% CO2. Following this incubation, 3.5 μl/well of caspase 3/7 reagent mixture was added to assay plates. The plates were incubated for 30 minutes at room temperature, and the resultant luminescence signal was measured using a ViewLux plate reader (Perkin Elmer). Experiments measuring virus-induced cell death required a 72-hour incubation of ZIKV in the presence of compounds at 37° C. in 5% CO2. Following this incubation, 3.5 μl/well of ATP content detection reagent was added to assay plates, incubated for 30 minutes at the room temperature, and the resultant luminescence signal was measured in a ViewLux plate reader.
Caspase-Glo 3/7 assay kit (Promega) was used to detect caspase 3/7 activity. Reagents were reconstituted as described in the protocol from the manufacturer. Cells were seeded in 384- and 1536-well assay plates and cultured at 37° C. with 5% CO2 for 16 hours. ZIKV solution was added to cells, followed by incubation at 37° C. with 5% CO2 for 6 hours. Caspase-Glo 3/7 was added to each well at a 1:1 ratio, unless otherwise specified, and incubated at room temperature for 30 minutes. The luminescence intensity of the assay plates was measured using a ViewLux plate reader (PerkinElmer). Data was normalized by using the cell-containing wells without ZIKV as a negative (0% induction of caspase 3/7 activity) control and wells containing ZIKV infected cells that induced caspase 3/7 activity were used as a positive control (100% induction of caspase 3/7 activity).
Human NPCs were seeded onto PDL coated 1536-well assay plates at 250 cells per 3 μl/well and incubated at 37° C. in 5% CO2 for 16 hours. Test compounds dissolved in DMSO were transferred to assay plates at a volume of 23 nl/well by an automated pintool workstation (Wako Automation, San Diego, Calif.). Compounds were incubated with cells for 30 minutes at 37° C. in 5% CO2, immediately followed by the addition of 2 μl/well of ZIKV. Incubation time of compound-treated cells with ZIKV varied based on assay format. Experiments measuring virus induced caspase 3/7 activity required a 6 hour incubation of ZIKV in the presence compounds at 37° C. in 5% CO2. […]

[3] = system: ZIKV-induced cell death in human astrocytes; test: ATP cell viability assay for ZIKV-induced cell death, human astrocytes; assay type: cell-based; conditions: for IC50: read-out: Cell viability (IC50, uM) Astrocyte
[4] = system: ZIKV-induced caspase 3/7 activity in human astrocytes; test: Caspase 3/7 activity assay, ZIKV-infected human astrocytes; assay type: cell-based; conditions: for IC50: read-out: Caspase 3 (IC50, uM) Astrocyte; for Emax: read-out: Caspase 3 (efficacy, %) Astrocyte
Description: as §1, §2

[5] = system: ZIKV-induced cell death in SNB-19 cells; test: ATP cell viability assay for ZIKV-induced cell death, SNB-19 cells; assay type: cell-based, human
Description: (§3) The reagent was reconstituted and prepared as described by the manufacturer. In order to measure the cell death caused by ZIKV infection, cells were cultured for 16 hours at 37° C. with 5% CO2 in assay plates, followed by the addition of ZIKV solution and incubation at 37° C. with 5% CO2 for 72 hours. ATPlite, the ATP monitoring reagent, was then added to the assay plates and they were incubated for 15 minutes. The resulting luminescence was measured using the ViewLux plate reader (Perkin Elmer). Data were normalized using the wells without cells as a control for 100% cell killing, and cell-containing wells without ZIKV infection were used as full cell viability (0% cell killing). […]
as §3, with “The ATPlite luminescence assay system assay kit (PerkinElmer) was used to determine cell viability. The reagent” for “The reagent”, “by the manufacture. In order” for “by the manufacturer. In order”, “followed by addition of” for “followed by the addition of”, “plates and incubated for” for “plates and they were incubated for”, “Elmer). Data was normalized using” for “Elmer). Data were normalized using”

[6] = ZIKV-infected SNB-19 cells, read-out: Caspase 3 (IC50, uM) SNB-19
[7] = ZIKV-infected SNB-19 cells, read-out: Cell viability (IC50, uM) SNB-19
[8] = Homo sapiens, ZIKV-infected SNB-19 cells, read-out: Caspase 3 (IC50, uM) SNB-19
[9] = Homo sapiens, ZIKV-infected SNB-19 cells, read-out: Caspase 3 (efficacy, %) SNB-19
[10] = Homo sapiens, ZIKV-infected hNPCs
[11] = Astrocyte, ZIKV-infected human astrocytes

OCc1ccc(-c2ccc(-c3ccc(CO)s3)o2)s1 [RITA]
Caspase 3 (efficacy, %) SNB-19 ([1]; ZIKV-infected SNB-19 cells): 101% | IC50 [1, 6]: 0.22 µM | Caspase 3 (efficacy, %) NPCs ([2]; ZIKV-infected hNPCs): 50.9% | IC50 ([2]; ZIKV-infected hNPCs): 14.6 µM | Cell viability (efficacy, %) Astrocyte ([3]; ZIKV-infected human astrocytes): 81.7% | IC50 ([3]; ZIKV-infected human astrocytes): 5.81 µM | Caspase 3 (efficacy, %) Astrocyte ([4]; ZIKV-infected human astrocytes): 41.2% | IC50 ([4]; ZIKV-infected human astrocytes): 27.5 µM | Cell viability (efficacy, %) SNB-19 ([5]; ZIKV-infected SNB-19 cells): 0.0%

COc1cccc2c1C(=O)c1c(O)c3c(c(O)c1C2=O)C[C@@](O)(C(=O)CO)C[C@@H]3O[C@H]1C[C@H](N2CCO[C@H](OC)C2)[C@H](O)[C@H](C)O1 [Nemorubicin]
IC50 ([1]; Homo sapiens, SNB-19, read-out: Caspase 3 (IC50, uM) SNB-19): 30.8 µM | Emax ([1]; Homo sapiens, SNB-19, read-out: Caspase 3 (efficacy, %) SNB-19): 53.1% | Emax ([2]; Homo sapiens): 82.9% | IC50 ([3]; Homo sapiens, Astrocyte): 0.87 µM | Cell viability (efficacy, %) Astrocyte ([3]; ZIKV-infected human astrocytes): 146% | IC50 ([4]; Homo sapiens, Astrocyte): 15.5 µM | Emax ([4]; Homo sapiens, Astrocyte): 42.6% | IC50 ([5]; Homo sapiens, SNB-19, read-out: Cell viability (IC50, uM) SNB-19): 0.41 µM | Cell viability (efficacy, %) SNB-19 ([5]; ZIKV-infected SNB-19 cells): 117%

Malachite green oxalate
Caspase 3 (efficacy, %) SNB-19 ([1]; ZIKV-infected SNB-19 cells): 0.0% | Caspase 3 (efficacy, %) NPCs ([2]; ZIKV-infected hNPCs): 62.7% | IC50 ([2]; ZIKV-infected hNPCs): 21.8 µM | Cell viability (efficacy, %) Astrocyte [3]: 0.0% | Caspase 3 (efficacy, %) Astrocyte ([4]; ZIKV-infected human astrocytes): 54.0% | IC50 ([4]; ZIKV-infected human astrocytes): 17.3 µM | Cell viability (efficacy, %) SNB-19 [5]: 0.0%

N#C/C(=C\c1ccc(O)c(O)c1)C(=O)Nc1ccccc1 [Tyrphostin AG 494]
Caspase 3 (efficacy, %) SNB-19 ([1]; ZIKV-infected SNB-19 cells): 55.6% | IC50 [1, 6]: 21.8 µM | Caspase 3 (efficacy, %) NPCs ([2]; ZIKV-infected hNPCs): 72.8% | IC50 ([2]; ZIKV-infected hNPCs): 17.3 µM | Cell viability (efficacy, %) Astrocyte ([3]; ZIKV-infected human astrocytes): 0.0% | Caspase 3 (efficacy, %) Astrocyte ([4]; ZIKV-infected human astrocytes): 72.5% | IC50 ([4]; ZIKV-infected human astrocytes): 18.4 µM | Cell viability (efficacy, %) SNB-19 ([5]; ZIKV-infected SNB-19 cells): 45.6% | IC50 [5, 7]: 30.8 µM

CC(/C=C1\SC(=S)N(CC(=O)O)C1=O)=C\c1ccccc1 [Epalrestat]
IC50 [1, 8]: 20.6 µM | Emax [1, 9]: 79.2% | IC50 [2, 10]: 15.5 µM | Emax [2, 10]: 72.1% | Cell viability (efficacy, %) Astrocyte ([3]; ZIKV-infected human astrocytes): 0.0% | IC50 [4, 11]: 19.5 µM | Emax [4, 11]: 93.3% | IC50 ([5]; Homo sapiens, ZIKV-infected SNB-19 cells, read-out: Cell viability (IC50, uM) SNB-19): 5.48 µM | Cell viability (efficacy, %) SNB-19 ([5]; ZIKV-infected SNB-19 cells): 82.1%

COc1cccc2c1C(=O)c1c(O)c3c(c(O)c1C2=O)C[C@@](O)(C(=O)CO)C[C@@H]3O[C@H]1C[C@H](N)[C@H](O[C@@H]2CCCCO2)[C@H](C)O1 [Pirarubicin]
IC50 [1, 8]: 20.6 µM | Emax [1, 9]: 63.9% | Emax [2, 10]: 51.5% | Cell viability (efficacy, %) Astrocyte ([3]; ZIKV-infected human astrocytes): 0.0% | IC50 [4, 11]: 13.8 µM | Emax [4, 11]: 59.8% | Cell viability (efficacy, %) SNB-19 ([5]; ZIKV-infected SNB-19 cells): 0.0%

O=c1cc(-c2ccccc2)oc2cc(O)c(O)c(O)c12 [Baicalein]
IC50 [1, 8]: 29.1 µM | Emax [1, 9]: 50.6% | IC50 [2, 10]: 18.4 µM | Emax [2, 10]: 57.5% | Cell viability (efficacy, %) Astrocyte ([3]; ZIKV-infected human astrocytes): 0.0% | Emax [4, 11]: 0% | Cell viability (efficacy, %) SNB-19 ([5]; ZIKV-infected SNB-19 cells): 0.0%

CC(C)(C)COc1ccc(-n2cc(C(=O)O)cn2)cc1C#N [Piraxostat]
Caspase 3 (efficacy, %) SNB-19 ([1]; ZIKV-infected SNB-19 cells): 63.5% | IC50 [1, 6]: 21.1 µM | Caspase 3 (efficacy, %) NPCs ([2]; ZIKV-infected hNPCs): 67.1% | IC50 ([2]; ZIKV-infected hNPCs): 15.8 µM | Cell viability (efficacy, %) Astrocyte ([3]; ZIKV-infected human astrocytes): 34.7% | IC50 ([3]; ZIKV-infected human astrocytes): 63.1 µM | Caspase 3 (efficacy, %) Astrocyte ([4]; ZIKV-infected human astrocytes): 70.5% | IC50 ([4]; ZIKV-infected human astrocytes): 8.91 µM | Cell viability (efficacy, %) SNB-19 ([5]; ZIKV-infected SNB-19 cells): 60.3% | IC50 [5, 7]: 5.01 µM

COc1cc2nc(N3CCN(C(=O)C4CCCO4)CC3)nc(N)c2cc1OC (stereo not shown) [Terazosin hydrochloride]
IC50 [1, 8]: 17.3 µM | Emax [1, 9]: 77.3% | IC50 [2, 10]: 10.9 µM | Emax [2, 10]: 84.4% | IC50 [4, 11]: 12.3 µM | Emax [4, 11]: 88.9%

From US10940188B2, “Compounds and methods for treatment and prevention of Flavivirus infection” (priority 2016, dated 2021)
